# Test results reported in publication PMC5078989, “Targeted inhibition of the COP9 signalosome for treatment of cancer” (Nature Communications, 2016).
# Tested on: panel of cancer cell lines
# Experiment: Cell viability (CellTiter-Glo) dose-response across cancer cell line panel;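 on EC50: after 72 h compound incubation with CellTiter-Glo ATP readout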
# Assay type: cell-based, human
# Conditions: for EC50: Homo sapiens
# Description: Next, we explored the effect of CSN5 inhibition on the viability of cancer cells. To obtain a comprehensive picture, we generated dose–response curves with a CSN5 inhibitor across more than 500 cancer cell lines in a previously described standardized setting[47] (Supplementary Data 1).
# A standardized CellTiter-Glo Assay (Promega #G7570) based on the quantification of ATP was applied according to the manufacturer's protocol to measure the amount of viable cells in culture. In brief, cells were seeded into 384-well plates at optimal density for each cell line. After 4 h, compounds were added at different concentrations in growth medium and incubated for another 72 h in a humidifying chamber at 37 °C and 5% CO2. […] EC50 values were calculated from the plot of percentage of inhibition versus inhibitor concentration using the nonlinear regression analysis software Origin 7.5SR6 (OriginLab Corp.).
smiles,measurement,setting,value
"COCc1ccccc1NCc1ccc([C@@H]2[C@H](O)CCCc3cncn32)c(-c2ccccc2Cl)c1 [CSN5i-2e, (5R,6R)-5-(2′-chloro-5-(((2-(methoxymethyl)phenyl)amino)methyl)-[1,1′-biphenyl]-2-yl)-6,7,8,9-tetrahydro-5H-imidazo[1,5-a]azepin-6-ol]",AMAX,59M cells,-44.1889
same,AMAX,92.1 cells,-96.1867
same,AMAX,A101D cells,-85.3496
same,AMAX,A2780 cells,-96.2609
same,AMAX,A-704 cells,-60.7987
same,AMAX,ABC-1 cells,-95.9302
same,AMAX,AM-38 cells,-94.7284
same,AMAX,AsPC-1 cells,-87.4169
same,AMAX,BFTC-909 cells,-56.5002
same,AMAX,BICR 6 cells,-77.6622
same,AMAX,BICR 16 cells,-89.8558
same,AMAX,Calu-6 cells,-67.9674
same,AMAX,DU4475 cells,-97.6355
same,AMAX,EFM-192A cells,-84.5576
same,AMAX,FaDu cells,-85.1498
same,AMAX,GP2d cells,-5.479
same,AMAX,HARA cells,-90.816
same,AMAX,HCC1143 cells,-51.336
same,AMAX,HCC1187 cells,-85.4618
same,AMAX,HD-MY-Z cells,-75.4546
same,AMAX,HEC-151 cells,-93.7534
same,AMAX,HEL cells,-96.2302
same,AMAX,HL-60 cells,-99.3648
same,AMAX,HLC-1 cells,-73.0832
same,AMAX,HLE cells,-72.0117
same,AMAX,HLF cells,-45.3286
same,AMAX,HSC-4 cells,-74.8911
same,AMAX,HT-29 cells,-73.0471
same,AMAX,HUP-T4 cells,-52.1939
same,AMAX,Hep3B cells,-93.3733
same,EC50,"59M, 59M cells",> 30 µM
same,EC50,92.1 cells,14.4 µM
same,EC50,"639-V, 639-V cells",23 µM
same,EC50,697 cells,9.5 µM
same,EC50,"769-P, 769-P cells",12.8 µM
same,EC50,"786-0, 786-O cells",6.26 µM
same,EC50,"1321-N1, 1321N1 cells",12.9 µM
same,EC50,"8505C, 8505C cells",8.9 µM
same,EC50,A4/Fuk cells,14.5 µM
same,EC50,"A101D, A101D cells",9.82 µM
same,EC50,"A204, A-204 cells",15.2 µM
same,EC50,"A498, A-498 cells",13.7 µM
same,EC50,"A549, A549 cells",10.6 µM
same,EC50,"A673, A-673 cells",14.4 µM
same,EC50,"A2058, A2058 cells",23.5 µM
same,EC50,"A2780, A2780 cells",8.53 µM
same,EC50,"A-375, A-375 cells",10.4 µM
same,EC50,"ABC-1, ABC-1 cells",3.6 µM
same,EC50,"ACC-MESO-1, ACC-MESO-1 cells",> 30 µM
same,EC50,"AM-38, AM-38 cells",11.9 µM
same,EC50,AML-193 cells,18.9 µM
same,EC50,"AN3-CA, AN3 CA cells",> 30 µM
same,EC50,"ASPC1, AsPC-1 cells",13.4 µM
same,EC50,BC-3C cells,8.14 µM
same,EC50,BEN cells,10.5 µM
same,EC50,"BFTC-909, BFTC-909 cells",13.2 µM
same,EC50,BHY cells,12.8 µM
same,EC50,BICR 6 cells,9.82 µM
same,EC50,BICR 16 cells,11.1 µM
same,EC50,BICR 18 cells,> 30 µM
same,EC50,BICR 31 cells,19.6 µM
same,EC50,"BT-16, BT-16 cells",18.3 µM
same,EC50,"BT-474, BT-474 cells",11.4 µM
same,EC50,"BT-549, BT-549 cells",19.4 µM
same,EC50,"C3A, C3A cells",9.64 µM
same,EC50,"CAKI-2, Caki-2 cells",11.3 µM
same,EC50,"CAL-12T, CAL-12T cells",8.27 µM
same,EC50,"CAL-27, CAL 27 cells",12 µM
same,EC50,CAL-29 cells,11.8 µM
same,EC50,"CAL-85-1, CAL-85-1 cells",18.6 µM
same,EC50,"CAL-120, CAL-120 cells",9.09 µM
same,EC50,"CAL-148, CAL-148 cells",9.65 µM
same,EC50,"CAMA-1, CAMA-1 cells",10.9 µM
same,EC50,"CAPAN-1, Capan-1 cells",7.41 µM
same,EC50,"CCRF-HSB-2, CCRF-HSB-2 cells",4.36 µM
same,EC50,"CEM/C1, CEMC1 cells",6.88 µM
same,EC50,"CFPAC-1, CFPAC-1 cells",11.4 µM
same,EC50,CL-14 cells,11.1 µM
same,EC50,CL-34 cells,11.1 µM
same,EC50,"CMK, CMK cells",8.18 µM
same,EC50,"CMK-86, CMK-86 cells",7.36 µM
same,EC50,"COLO 201, COLO 201 cells",12.6 µM
same,EC50,"COLO 205, COLO 205 cells",11.6 µM
same,EC50,"COLO 320, COLO-320 cells",8.29 µM
same,EC50,"COLO 699, COLO-699 cells",10.1 µM
same,EC50,"COLO 704, COLO-704 cells",12.6 µM
same,EC50,"COLO-678, COLO-678 cells",16.6 µM
same,EC50,"COLO-679, COLO-679 cells",13.6 µM
same,EC50,"COLO-741, COLO 741 cells",27.1 µM
same,EC50,"COLO-829, COLO 829 cells",11.6 µM
same,EC50,"COR-L23, COR-L23 cells",8.42 µM
same,EC50,"COR-L105, COR-L105 cells",13.1 µM
same,EC50,"COV362, COV362 cells",10.6 µM
same,EC50,"CW-2, CW-2 cells",9.62 µM
same,EC50,"Calu-6, Calu-6 cells",9.62 µM
same,EC50,"ChaGo-K-1, ChaGo-K-1 cells",12.7 µM
same,EC50,"Ci-1, CI-1 cells",2.87 µM
same,EC50,"DB, DB cells",8.52 µM
same,EC50,"DLD-1, DLD-1 cells",> 30 µM
same,EC50,"DMS-53, DMS 53 cells",17.9 µM
same,EC50,"DMS-273, DMS 273 cells",9.95 µM
same,EC50,"DND41, DND-41 cells",12.6 µM
same,EC50,"DU-4475, DU4475 cells",14.8 µM
same,EC50,"EBC-1, EBC-1 cells",17.8 µM
same,EC50,"EFM-19, EFM-19 cells",13.1 µM
same,EC50,"EFM-192A, EFM-192A cells",6.13 µM
same,EC50,"EOL1, EOL-1 cells",3.43 µM
same,EC50,"FaDu, FaDu cells",10.2 µM
same,EC50,"Fu97, FU97 cells",8.56 µM
same,EC50,"G-401, G-401 cells",7.91 µM
same,EC50,"G-402, G-402 cells",11.3 µM
same,EC50,"GAMG, GAMG cells",> 30 µM
same,EC50,"GDM-1, GDM-1 cells",9.32 µM
same,EC50,"GI-1, GI-1 cells",15.6 µM
same,EC50,"GP2d, GP2d cells",> 30 µM
same,EC50,HARA cells,14.2 µM
same,EC50,"HCC15, HCC-15 cells",23 µM
same,EC50,"HCC44, HCC-44 cells",5.76 µM
same,EC50,"HCC70, HCC70 cells",13.3 µM
same,EC50,"HCC95, HCC-95 cells",15 µM
same,EC50,"HCC827, HCC827 cells",15.5 µM
same,EC50,"HCC1143, HCC1143 cells",11.1 µM
same,EC50,"HCC1187, HCC1187 cells",10.7 µM
same,EC50,"HCC1500, HCC1500 cells",11.7 µM
same,EC50,"HCC1588, HCC-1588 cells",7.61 µM
same,EC50,"HCC1806, HCC1806 cells",22.7 µM
same,EC50,"HCC1954, HCC1954 cells",15.3 µM
same,EC50,HCC-56 cells,18.5 µM
